The subject of experiment [1] is mice. To be noted: from Compton et al., 1996; cited from earlier work.
Experiment [2] has as its system mice. The experiment is described as follows: Spontaneous activity in mice, compound in combination with 3 mg/kg Δ^9-THC (antagonism test). The experiment is classed as in vivo. To be noted: at 3 mg/kg i.v., analog 10 min before Δ^9-THC. Here is the method: (§1) Male ICR mice (25-32 g), purchased from Harlan (Dublin, Va.), were housed in groups of five. All animals were kept in a temperature-controlled (20-22° C.) environment with a 12-hour light-dark cycle (lights on at 7 a.m.). Separate mice were used for testing each drug dose in the in vivo behavioral procedures. The mice were maintained on a […] light: dark cycle, and received food and water ad libitum. Brain tissue for binding studies was obtained from male Sprague-Dawley rats (150-200 g) purchased from Harlan Laboratories (Dublin, Va.).
(§2) Measurement of spontaneous activity in mice occurred in standard activity chambers interfaced with a Digiscan Animal Activity Monitor (Omnitech Electronics, Inc., Columbus, Ohio). A standard tail-flick apparatus (described by Dewey et al., 1970) and a digital thermometer (Fisher Scientific, Pittsburgh, Pa.) were used to measure antinociception and rectal temperature, respectively.
(§3) All drugs were administered to the mice intravenously (i.v.) in the tail vein at a volume of 0.1 ml/10 g.
(§4) Maximum latency of 10 sec was used.

Experiment [3] concerns mice. Put plainly: Antagonism tests with 3 mg/kg Δ^9-THC, stated across the measures (locomotor, antinociception, hypothermia). To be noted: 3 mg/kg Δ^9-THC i.v.
The test system of experiment [4] is mice. The experiment is described as follows: Tail-flick antinociception in mice, compound in combination with 3 mg/kg Δ^9-THC (antagonism test). The conditions noted are these: at 0.1 mg/kg i.v. The experiment is classed as in vivo. The procedure:
as §1, §2, §3, §4

Experiment [5] deals with mice. The conditions noted are these: from Compton et al., 1996; cited from earlier work. The source holds these as a separate data set.
For experiment [6], the system named is mice. To be noted: from Compton et al., 1996; cited from earlier work. The source holds these as a separate data set.

SMILES strings stand for the structures. Counter-ions that a name gives are not always drawn. Marks after values point to notes of the source that are not given here. Some results are limits rather than exact numbers.

Consider `Cc1c(C(=O)NN2CCCCC2)nn(-c2ccc(Cl)cc2Cl)c1-c1ccc(Cl)cc1` [SR141716A, N-(piperidin-1-yl)-5-(4-chlorophenyl)-1-(2,4-dichlorophenyl)-4-methyl-1H-pyrazole-3-carboxamide hydrochloride, reference compound], for which, in experiment [1], the “RT: > dose, 50% activity not achieved at this highest dose tested” value is recorded as >30^c mg/kg. For the same compound, the “SA: maximum % antagonism of 3 mg/kg Δ^9-THC” value in experiment [2] is 100% (3). Also, the “antagonism of locomotor suppressant, antinociceptive and hypothermic effects of Δ^9-THC (in words)” value in experiment [3] is on record as “fully antagonized”. Also, in experiment [4], the “% MPE: maximum % antagonism of 3 mg/kg Δ^9-THC” value was 96% (0.1). Further, the “SA: > dose, 50% activity not achieved at this highest dose tested” value in experiment [5] is listed as >30^c mg/kg. In addition, the “TF: > dose, 50% activity not achieved at this highest dose tested” value in experiment [6] is on record as >30^c mg/kg.
